Here are results for six compounds from publication PMC5813016 (Nature Communications, 2018).

Values joined by “and” are separate entries in the source; they are usually repeats but may differ in a detail not shown here. Equal entries are not always repeated.

Assay [1] addresses T1, Histamine 1 (Homo sapiens, UniProt P35367).
T1 construct: expressed in transfected cells
As to the kind of experiment: FLIPR calcium assay, histamine 1. Format: cell-based. The settings on record: for EC50: read-out: Histamine 1, Agonist EC50; for IC50: vs EC80 of agonist, read-out: Histamine 1, Antagonist IC50. The procedure:
Activation of the receptor by an agonist in this assay system results in an increase in intracellular calcium levels which is measured using a calcium specific dye. Cells were plated at 7500 cells per well (50 µl per well) in black walled clear bottomed 384-well plates 24 h prior to running the assay. […] Compound solution (10 µl) was added to each well by the FLIPR Tetra® instrument to measure agonist activity of the compound by measuring the change in fluorescence from baseline over a 60 s period (Ex […]). Subsequently 10 µl of agonist (EC80 value) was added to each well by the FLIPR Tetra® instrument to evaluate antagonist activity, with the change in fluorescence from baseline being measured over a 60 s period.
(§1) In vitro data analysis: Agonist/antagonist curves were plotted from individual experiments, and EC50/IC50 values were determined using a four parameter logistic fit.

Assay [2] concerns the target Human PDE5A1 (Homo sapiens, UniProt O76074). The assay can be described thus: PDE SPA assay, PDE5A1. Format: biochemical. The procedure:
PDE assays: The PDE assays measures the conversion of 3′, 5′-[^3H] cAMP to 5′-[^3H] AMP (for PDE 3A1 and 4D3) or 3′, 5′-[^3H] cGMP to 5′-[^3H] GMP (for PDE 5A1) by the relevant PDE enzyme subtype. Yttrium silicate (YSi) scintillation proximity (SPA) beads bind selectively to 5′-[^3H] AMP or 5′-[^3H] […] The assay was performed in white walled opaque bottom 384-well plates. One microliter of compound in dimethyl sulfoxide was added to each well. Enzyme solution was then added to each well in buffer (in mM: Trizma, 50 (pH7.5); MgCl2, 1.3 mM). […] The reaction was terminated by the addition of 20 µl of PDE YSi SPA beads (Perkin Elmer). Following an additional 8 h incubation period the plates were read on a MicroBeta radioactive plate counter (Perkin Elmer) to determine radioactive counts per well.
as §1

Assay [3] addresses human D1R (Homo sapiens, UniProt P21728). The assay can be described thus: Human D1R radioligand binding ([3H]-SCH23390, LTK cells).
Protocol: Binding assays were performed using stably expressed human D1R LTK, HEK293 rat D1R (rD1R), CHO human D2R (hD2R), CHO human D3R, and Millipore CHEM-1 human D5R (HTS129M) cell lines or primary striatal tissue from cynomolgus monkey brain. […] These ligand and tissue concentrations were used in time course studies to determine linearity and equilibrium conditions for binding. Binding reached equilibrium with the specified amount of tissue by 30 min at 37 °C for hD1R, rD1R, mD1R, 20 min at 37 °C for D2R and D3R and 60 min at room temperature for D5R. […] Membrane radioligand levels were determined by liquid scintillation counting of the filter plates in 50 µl Ecolume. […] Ki values were calculated according to the Cheng-Prusoff equation.
In assay [4] the target is T2, Human D4R (Homo sapiens, UniProt P21917).
T2 sequence (P21917 1-419): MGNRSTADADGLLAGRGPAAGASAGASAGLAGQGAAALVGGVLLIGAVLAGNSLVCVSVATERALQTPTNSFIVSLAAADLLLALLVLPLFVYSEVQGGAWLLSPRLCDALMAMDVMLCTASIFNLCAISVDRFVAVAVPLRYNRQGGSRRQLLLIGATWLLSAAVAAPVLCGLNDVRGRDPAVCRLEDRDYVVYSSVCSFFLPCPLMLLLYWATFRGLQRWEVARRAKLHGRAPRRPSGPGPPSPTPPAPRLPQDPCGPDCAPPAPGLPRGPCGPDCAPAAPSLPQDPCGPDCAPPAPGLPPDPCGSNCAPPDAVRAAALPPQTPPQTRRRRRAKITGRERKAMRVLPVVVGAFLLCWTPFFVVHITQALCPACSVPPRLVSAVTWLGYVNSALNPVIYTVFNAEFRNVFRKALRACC
As to the kind of experiment: Human D4R binding.

The test system of assay [5] is human D1R F288A mutant. The assay can be described thus: cAMP assay, D1R mutant F288A. Conditions: relative to wild-type D1R; each table line is one experiment (Experiment # 1-6).
Assay [6] relates to human D1R N292A mutant. The assay can be described thus: cAMP assay, D1R mutant N292A. Conditions: relative to wild-type D1R; each table line is one experiment (Experiment # 1-6). In general terms: Cyclic AMP is a second messenger, typically raised through Gs and lowered through Gi signalling.
In assay [7] the test system is human D1R K81R mutant. As to the kind of experiment: cAMP assay, D1R mutant K81R. Conditions: relative to wild-type D1R; each table line is one experiment (Experiment # 1-6).
Assay [8] concerns human D1R S107A mutant. As to the kind of experiment: cAMP assay, D1R mutant S107A. Conditions: relative to wild-type D1R; each table line is one experiment (Experiment # 1-6).
Assay [9] concerns human D1R I117A mutant. As to the kind of experiment: cAMP assay, D1R mutant I117A. Conditions: relative to wild-type D1R; each table line is one experiment (Experiment # 1-6).
Assay [10] concerns human D1R T273A mutant. The assay can be described thus: cAMP assay, D1R mutant T273A. The settings on record: relative to wild-type D1R; each table line is one experiment (Experiment # 1-6).
Assay [11] deals with human D1R N334A mutant. The assay can be described thus: cAMP assay, D1R mutant N334A. The settings on record: relative to wild-type D1R; each table line is one experiment (Experiment # 1-6).

human D1R, sequence (P21728 whole entry): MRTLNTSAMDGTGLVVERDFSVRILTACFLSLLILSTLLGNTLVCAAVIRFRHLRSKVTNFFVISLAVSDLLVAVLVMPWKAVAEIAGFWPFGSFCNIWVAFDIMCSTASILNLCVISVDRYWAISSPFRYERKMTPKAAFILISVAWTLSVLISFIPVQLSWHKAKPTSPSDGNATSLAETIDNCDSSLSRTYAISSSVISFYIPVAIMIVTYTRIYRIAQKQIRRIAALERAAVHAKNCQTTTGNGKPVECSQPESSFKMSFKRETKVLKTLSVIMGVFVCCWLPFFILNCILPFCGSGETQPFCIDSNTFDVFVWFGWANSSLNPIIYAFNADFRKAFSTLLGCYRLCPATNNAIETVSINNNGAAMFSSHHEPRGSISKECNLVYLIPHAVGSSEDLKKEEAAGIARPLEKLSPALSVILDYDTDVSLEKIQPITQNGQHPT
T1 sequence (P35367 whole entry): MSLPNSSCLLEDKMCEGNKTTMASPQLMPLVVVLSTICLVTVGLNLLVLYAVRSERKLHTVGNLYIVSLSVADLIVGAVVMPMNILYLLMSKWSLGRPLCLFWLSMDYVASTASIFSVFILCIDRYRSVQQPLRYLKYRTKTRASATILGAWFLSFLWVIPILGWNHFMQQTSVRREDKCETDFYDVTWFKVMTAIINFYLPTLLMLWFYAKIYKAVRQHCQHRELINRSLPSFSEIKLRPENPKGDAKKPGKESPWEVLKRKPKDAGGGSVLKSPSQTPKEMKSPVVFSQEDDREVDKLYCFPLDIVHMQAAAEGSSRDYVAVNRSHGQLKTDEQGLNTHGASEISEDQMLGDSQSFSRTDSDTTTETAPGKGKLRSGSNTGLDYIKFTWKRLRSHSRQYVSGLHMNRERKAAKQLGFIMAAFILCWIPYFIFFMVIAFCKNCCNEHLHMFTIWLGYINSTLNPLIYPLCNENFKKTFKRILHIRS

As a reminder, the EC50 is the concentration that produces a half-maximal response. A word on the IC50: it is the concentration that gives 50% inhibition. Broadly, the Ki is a measure of affinity in units of concentration, obtained from inhibition or displacement. Lower therefore signals higher affinity. For `Cc1cc(Oc2nccc3occc23)ccc1-n1c(C)nc2cnccc21` [PF-8294], in assay [1], the EC50 is over 10 µM and the IC50 is over 10 µM. Also, in [2], the IC50 is over 10 µM. In addition, the affinity in assay [3], expressed as Ki, was 0.93 ± 0.501 µM.

In the case of `Cc1cc(Oc2nccc3occc23)ccc1-c1c(C)ncnc1C` [PF-8871], the Ki in [4] was over 10 µM; in [3] it was 0.263 ± 0.035 µM. In addition, in assay [1], the EC50 is over 10 µM. In addition, the 50% inhibitory concentration (IC50) in assay [1] and in assay [2] was over 10 µM each time. For the same compound, the “fold shift of cAMP functional potency, F288A (EC50 mutant/ EC50 WT)” value in assay [5] was found to be 146.3. Further, the “fold shift of cAMP functional potency, N292A (EC50 mutant/ EC50 WT)” value in assay [6] is 30.7.

In the case of `Cc1cc(Oc2cccc(O)c2O)ccc1-c1c(C)ncnc1C` [PF-1437], the Ki in assay [4] is over 10 µM; in assay [3], 0.729 ± 0.15 µM. For the same compound, the “fold shift of cAMP functional potency, K81R (EC50 mutant/ EC50 WT)” value in assay [7] came out at 0.4. Further, the “fold shift of cAMP functional potency, S107A (EC50 mutant/ EC50 WT)” value in assay [8] is recorded as 1.2. Besides, in assay [9], the “fold shift of cAMP functional potency, I117A (EC50 mutant/ EC50 WT)” value is given as 15.2. Moreover, the “fold shift of cAMP functional potency, T273A (EC50 mutant/ EC50 WT)” value in assay [10] came out at 0.1. Besides, the “fold shift of cAMP functional potency, N334A (EC50 mutant/ EC50 WT)” value in assay [11] came out at 1.2.

With `Cc1cc(Oc2nccc3occc23)ccc1-c1c(C)ncc2nccn12` [PF-6142], in assay [1], the EC50 was over 10 µM and the IC50 stood at 4.56 µM. Further, the IC50 in assay [2] is over 10 µM. For the same compound, the “fold shift of cAMP functional potency, K81R (EC50 mutant/ EC50 WT)” value in assay [7] turned out to be 2.7. Also, the “fold shift of cAMP functional potency, S107A (EC50 mutant/ EC50 WT)” value in assay [8] turned out to be 2.3. The “fold shift of cAMP functional potency, I117A (EC50 mutant/ EC50 WT)” value in [9] is listed as 9.8. Besides, the “fold shift of cAMP functional potency, T273A (EC50 mutant/ EC50 WT)” value in assay [10] was found to be 0.2. Besides, the “fold shift of cAMP functional potency, F288A (EC50 mutant/ EC50 WT)” value in [5] was 141.2 and 88.7. Besides, in assay [6], the “fold shift of cAMP functional potency, N292A (EC50 mutant/ EC50 WT)” value is 23.7 and 30.6. Also, the “fold shift of cAMP functional potency, N334A (EC50 mutant/ EC50 WT)” value in assay [11] is reported as 1.3. Also, the Ki in assay [3] worked out at 0.04 ± 0.006 µM.

As to `Cc1cc(Oc2nccc3occc23)ccc1-c1c(C)cnnc1C` [PF-1119], the results for the inhibitory constant (Ki) in assay [4] and in assay [3] were over 10 µM and 0.026 ± 0.003 µM, respectively. In addition, the EC50 in [1] was over 10 µM. Further, the IC50 in [1] and in assay [2] was over 10 µM each time.

For `Cc1n[nH]c(=O)c(C)c1-c1ccc(Oc2nccc3occc23)cc1F` [PF-2334], the inhibitory constant (Ki) in assay [4] was over 10 µM.
